Test results from patent US20110044943A1, “Anti-Viral Compounds, Compositions, And Methods Of Use” (priority 2007, published 2011).

Test: Replicon Assay (luciferase, ET cell line)
Format: cell-based, HCV
Conditions: Hepatitis C virus; tested at 10 μM; inhibition of replication relative to no compound control; luciferase 48-72 hours
Source text: A cell line, ET (Huh-lucubineo-ET) was used for screening of compounds, or pharmaceutically acceptable salts or solvates, described herein for inhibition of HCV RNA dependent RNA polymerase. The ET cell line was stably transfected with RNA transcripts harboring a I389luc-ubi-neo/NS3-3′/ET; replicon with firefly luciferase-ubiquitin-neomycin phosphotransferase fusion protein and EMCV-IRES driven NS3-5B polyprotein containing the cell culture adaptive mutations (E1202G; T1280I; K1846T) (Krieger at al, 2001 and unpublished). The ET cells were grown in DMEM, supplemented with 10% fetal calf serum, 2 mM Glutamine, Penicillin (100 IU/mL)/Streptomycin (100 μg/mL), 1× nonessential amino acids, and 250 μg/mL G418 (“Geneticin”). They were all available through Life Technologies (Bethesda, Md.). The cells were plated at 0.5-1.0×10^4 cells/well in the 96 well plates and incubated for 24 hrs before adding the test compounds. […] Luciferase activity was measured 48-72 hours later by adding a lysis buffer and the substrate (Catalog number Glo-lysis buffer E2661 and Bright-Glo luciferase system E2620 Promega, Madison, Wis.). […] Under the same condition, cytotoxicity of the compounds was determined using cell proliferation reagent, WST-1 (Roche, Germany). […] EC50 and similarly TC50 values were calculated by fitting % inhibition at each concentration to the following equation: […]

With `Fc1cccc(-c2nc3cnn(Cc4cc(-c5ccc(Oc6ccccn6)cc5)no4)cc-3n2)c1F` [Compound 217] the inhibition at 10 µM was 85.3%.
